Data: patent US20250000843A1, “LIGNAN-INSPIRED COMPOUNDS, METHODS OF MAKING, AND USING THEREOF” (IOWAIBO, INC., priority 2023, published 2025)

Experiments:
[1] = target: T1, telomerase (Homo sapiens, UniProt O14746); assay: Q-TRAP telomerase activity in MCF7 breast cancer cells; type: cell-based; set-up: allow the enzymatic addition of telomeric DNA repeats by endogenous telomerase; endogenous in cells
[2] = target: T1, telomerase; assay: Q-TRAP telomerase activity in PC3 prostate cancer cells; type: cell-based; set-up: allow the enzymatic addition of telomeric DNA repeats by endogenous telomerase; endogenous in cells; host or cells: PC3 prostate cancer cells (protein extract of lysed cell pellets); key to Significance of RTA difference vs. control: No: non-significant; Yes (*): p < 0.05; Yes (**): p < 0.01; Yes (***): p < 0.001; Yes (****): p < 0.0001
Description: The general mechanism of the Q-TRAP technique involves cellular pellets being lysed for protein extraction which is then subsequently quantified and stored under specific conditions to avoid protein degradation. Protein obtained in the process was used within 72 hours and samples were stored at 4° C. Telomerase protein extracts are then incubated with a specific oligonucleotide substrate to allow the enzymatic addition of telomeric DNA repeats by endogenous telomerase. Following the enzymatic reaction, telomerase extension products are then amplified and quantified by real-time qPCR. In real time PCR, a positive reaction is detected by accumulation of a fluorescent signal. The Ct (cycle threshold) is defined as the number of cycles required for fluorescence to cross the threshold (i.e.: exceeds background levels). […] Data are reported as relative telomerase activity (RTA). […] Telomeric repeat amplification protocol (TRAP) was modified for quantitative real-time PCR (Q-TRAP) and was used to determine the effect of dibenzyl butyl lactone derivative on telomerase activity in prostate cancer cell. The same methods as used in Example 3 were employed. The same abbreviation scheme as presented in Table 7 is used throughout this example as well.

T1 sequence (O14746 whole entry): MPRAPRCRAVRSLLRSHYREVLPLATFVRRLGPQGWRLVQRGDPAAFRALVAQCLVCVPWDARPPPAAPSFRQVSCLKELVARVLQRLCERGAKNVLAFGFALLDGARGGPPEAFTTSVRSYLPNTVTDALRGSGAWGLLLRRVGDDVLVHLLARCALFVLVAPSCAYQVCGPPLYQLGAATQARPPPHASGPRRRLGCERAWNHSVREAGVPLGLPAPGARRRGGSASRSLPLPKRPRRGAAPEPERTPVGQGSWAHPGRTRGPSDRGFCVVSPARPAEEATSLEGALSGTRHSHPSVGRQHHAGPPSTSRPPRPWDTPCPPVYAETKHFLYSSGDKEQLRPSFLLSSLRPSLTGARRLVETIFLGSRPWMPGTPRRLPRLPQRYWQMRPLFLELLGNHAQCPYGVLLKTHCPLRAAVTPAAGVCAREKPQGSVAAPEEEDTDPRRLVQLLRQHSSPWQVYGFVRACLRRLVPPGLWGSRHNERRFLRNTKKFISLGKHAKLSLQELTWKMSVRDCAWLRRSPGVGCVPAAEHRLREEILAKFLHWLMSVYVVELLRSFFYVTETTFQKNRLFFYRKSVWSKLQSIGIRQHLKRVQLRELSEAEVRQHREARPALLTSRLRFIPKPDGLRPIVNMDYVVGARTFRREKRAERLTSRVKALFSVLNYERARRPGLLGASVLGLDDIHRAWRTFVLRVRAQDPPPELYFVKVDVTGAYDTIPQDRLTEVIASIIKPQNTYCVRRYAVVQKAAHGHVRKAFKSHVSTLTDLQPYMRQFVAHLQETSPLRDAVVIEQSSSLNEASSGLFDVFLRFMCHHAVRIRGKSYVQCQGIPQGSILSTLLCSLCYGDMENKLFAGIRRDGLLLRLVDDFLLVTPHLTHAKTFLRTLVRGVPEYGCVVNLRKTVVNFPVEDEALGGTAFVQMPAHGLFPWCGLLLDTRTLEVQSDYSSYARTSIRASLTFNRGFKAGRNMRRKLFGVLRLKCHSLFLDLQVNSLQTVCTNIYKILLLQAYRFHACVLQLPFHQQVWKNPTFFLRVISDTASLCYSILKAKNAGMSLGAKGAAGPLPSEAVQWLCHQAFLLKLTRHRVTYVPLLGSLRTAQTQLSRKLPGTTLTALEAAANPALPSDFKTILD
T1 sequence (O60832 whole entry partner): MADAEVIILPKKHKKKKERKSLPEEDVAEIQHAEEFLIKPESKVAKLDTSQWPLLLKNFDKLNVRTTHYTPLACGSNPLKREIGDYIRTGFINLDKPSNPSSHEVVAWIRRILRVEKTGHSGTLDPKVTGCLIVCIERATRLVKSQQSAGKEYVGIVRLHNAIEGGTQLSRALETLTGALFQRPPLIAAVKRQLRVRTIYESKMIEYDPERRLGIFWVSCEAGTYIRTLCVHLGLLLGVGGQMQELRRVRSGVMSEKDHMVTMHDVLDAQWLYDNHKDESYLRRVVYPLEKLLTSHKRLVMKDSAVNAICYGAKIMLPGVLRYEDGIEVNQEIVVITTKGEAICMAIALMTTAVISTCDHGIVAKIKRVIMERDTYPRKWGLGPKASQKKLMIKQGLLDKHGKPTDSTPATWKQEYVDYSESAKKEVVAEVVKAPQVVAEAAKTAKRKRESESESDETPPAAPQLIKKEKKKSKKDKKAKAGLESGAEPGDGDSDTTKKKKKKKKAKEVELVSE
T1 sequence (Q9NPE3 whole entry partner): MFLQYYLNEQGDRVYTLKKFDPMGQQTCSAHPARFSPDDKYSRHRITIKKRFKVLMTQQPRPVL
T1 sequence (Q9NX24 whole entry partner): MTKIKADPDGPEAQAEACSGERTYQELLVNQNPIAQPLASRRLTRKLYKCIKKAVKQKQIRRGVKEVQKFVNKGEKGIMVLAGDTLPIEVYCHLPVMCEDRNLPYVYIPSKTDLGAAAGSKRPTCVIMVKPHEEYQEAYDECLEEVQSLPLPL
T1 sequence (Q9NY12 whole entry partner): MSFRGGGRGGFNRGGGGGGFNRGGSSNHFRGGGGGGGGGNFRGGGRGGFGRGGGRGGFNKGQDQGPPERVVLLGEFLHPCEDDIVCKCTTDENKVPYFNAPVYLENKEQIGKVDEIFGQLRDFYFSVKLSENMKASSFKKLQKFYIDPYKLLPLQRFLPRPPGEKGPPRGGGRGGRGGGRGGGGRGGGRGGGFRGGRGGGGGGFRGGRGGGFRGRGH
T1 sequence (Q9BUR4 whole entry partner): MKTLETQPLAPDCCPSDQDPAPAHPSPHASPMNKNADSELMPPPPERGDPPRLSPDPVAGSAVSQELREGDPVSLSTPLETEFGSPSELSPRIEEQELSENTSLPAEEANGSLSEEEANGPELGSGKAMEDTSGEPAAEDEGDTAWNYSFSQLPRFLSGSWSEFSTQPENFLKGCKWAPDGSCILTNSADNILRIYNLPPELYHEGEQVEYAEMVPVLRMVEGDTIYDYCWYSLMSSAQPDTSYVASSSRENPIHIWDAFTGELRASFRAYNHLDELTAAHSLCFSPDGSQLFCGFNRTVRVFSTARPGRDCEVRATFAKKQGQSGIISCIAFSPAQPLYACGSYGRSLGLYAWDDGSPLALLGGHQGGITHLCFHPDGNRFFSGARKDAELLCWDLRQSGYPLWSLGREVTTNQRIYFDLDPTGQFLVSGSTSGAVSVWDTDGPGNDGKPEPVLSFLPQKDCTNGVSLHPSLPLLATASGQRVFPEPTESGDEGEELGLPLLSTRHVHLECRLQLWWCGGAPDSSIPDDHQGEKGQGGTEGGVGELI

O=C1OCC(Cc2ccc3c(c2)OCO3)/C1=C\c1cccc(O)c1 (single isomer, unassigned) [Enantiomer A, 3-[(3,4-dimethoxyphenyl)cyclopentyl], 4-[(3-hydroxyphenol)methyl]oxolan-2-one]
Telomerase Activity RTA (%) ([1]; MCF7, 2.5 μM, 24 Hours): 115.47% | Telomerase Activity RTA (%) ([1]; MCF7, 2.5 μM, 48 Hours): 49.73% | Telomerase Activity RTA (%) ([1]; MCF7, 2.5 μM, 72 Hours): 15.70% | Telomerase Activity RTA (%) ([1]; MCF7, 5 μM, 24 Hours): 35.54% | Telomerase Activity RTA (%) ([1]; MCF7, 5 μM, 48 Hours): 29.14% | Telomerase Activity RTA (%) ([1]; MCF7, 5 μM, 72 Hours): 14.77% | Telomerase Activity RTA (%) ([1]; MCF7, 10 μM, 24 Hours): 40.24% | Telomerase Activity RTA (%) ([1]; MCF7, 10 μM, 48 Hours): 28.47% | Telomerase Activity RTA (%) ([1]; MCF7, 10 μM, 72 Hours): 15.87% | Telomerase Activity RTA (%) ([1]; MCF7, 20 μM, 24 Hours): 25.50% | Telomerase Activity RTA (%) ([1]; MCF7, 20 μM, 48 Hours): 41.20% | Telomerase Activity RTA (%) ([1]; MCF7, 20 μM, 72 Hours): 5.82% | Telomerase Activity RTA (%) ([1]; MCF7, 40 μM, 24 Hours): 62.53% | Telomerase Activity RTA (%) ([1]; MCF7, 40 μM, 48 Hours): 36.82% | Telomerase Activity RTA (%) ([1]; MCF7, 40 μM, 72 Hours): 0.86% | IC50 ([1]; MCF7, 24 h): ~2.49 µM | telomerase activity levels of treated groups compared to control ([1]; MCF7, 24 hours): lower telomerase activity levels compared to control | Significance of RTA difference vs. control ([1]; MCF7, 24 hours, 5 μM): YES (*) | Significance of RTA difference vs. control ([1]; MCF7, 24 hours, 10 μM): YES (*) | Significance of RTA difference vs. control ([1]; MCF7, 24 hours, 20 μM): YES (*) | Significance of RTA difference vs. control ([1]; MCF7, 24 hours, 40 μM): YES (*) | IC50 ([1]; MCF7, 48 h): 2.23 µM | telomerase activity levels of treated groups compared to control ([1]; MCF7, 48 hours): lower telomerase activity levels compared to control | Significance of RTA difference vs. control ([1]; MCF7, 48 hours, 5 μM): YES (*) | Significance of RTA difference vs. control ([1]; MCF7, 48 hours, 10 μM): YES (**) | Significance of RTA difference vs. control ([1]; MCF7, 48 hours, 40 μM): YES (*) | IC50 ([1]; MCF7, 72 h): 19.8 µM | telomerase activity levels of treated groups compared to control ([1]; MCF7, 72 hours): groups treated with the two highest concentrations presented further lower RTA levels | Significance of RTA difference vs. control ([1]; MCF7, 72 hours, 40 μM): YES (**) | telomerase inhibition effect ([1]; MCF7 breast cancer cells): exhibit a telomerase inhibition effect | Telomerase Activity RTA (%) ([2]; PC3, 2.5 μM, 24 Hours): 49.67% | Telomerase Activity RTA (%) ([2]; PC3, 2.5 μM, 48 Hours): 21.48% | Telomerase Activity RTA (%) ([2]; PC3, 2.5 μM, 72 Hours): 18.63% | Telomerase Activity RTA (%) ([2]; PC3, 5 μM, 24 Hours): 44.11% | Telomerase Activity RTA (%) ([2]; PC3, 5 μM, 48 Hours): 7.86% | Telomerase Activity RTA (%) ([2]; PC3, 5 μM, 72 Hours): 15.77% | Telomerase Activity RTA (%) ([2]; PC3, 10 μM, 24 Hours): 20.76% | Telomerase Activity RTA (%) ([2]; PC3, 10 μM, 48 Hours): 3.60% | Telomerase Activity RTA (%) ([2]; PC3, 10 μM, 72 Hours): 19.40% | Telomerase Activity RTA (%) ([2]; PC3, 20 μM, 24 Hours): 22.61% | Telomerase Activity RTA (%) ([2]; PC3, 20 μM, 48 Hours): 2.51% | Telomerase Activity RTA (%) ([2]; PC3, 20 μM, 72 Hours): 5.20% | Telomerase Activity RTA (%) ([2]; PC3, 40 μM, 24 Hours): 29.78% | Telomerase Activity RTA (%) ([2]; PC3, 40 μM, 48 Hours): 6.23% | Telomerase Activity RTA (%) ([2]; PC3, 40 μM, 72 Hours): 1.48% | IC50 ([2]; PC3, 24 h): 5.18 µM | telomerase activity levels of treated groups compared to control ([2]; PC3, 24 hours): lower telomerase activity levels compared to control | Significance of RTA difference vs. control ([2]; PC3, 24 hours, 2.5 μM): No | Significance of RTA difference vs. control ([2]; PC3, 24 hours, 5 μM): Yes (*) (Yes (*): p < 0.05) | Significance of RTA difference vs. control ([2]; PC3, 24 hours, 10 μM): Yes (**) (Yes (**): p < 0.01) | Significance of RTA difference vs. control ([2]; PC3, 24 hours, 20 μM): Yes (***) (Yes (***): p < 0.001) | Significance of RTA difference vs. control ([2]; PC3, 24 hours, 40 μM): Yes (**) (Yes (**): p < 0.01) | IC50 ([2]; PC3, 48 h): 4.71 µM | telomerase activity levels of treated groups compared to control ([2]; PC3, 48 hours): lower telomerase activity levels compared to control | Significance of RTA difference vs. control ([2]; PC3, 48 hours, 2.5 μM): No | Significance of RTA difference vs. control ([2]; PC3, 48 hours, 5 μM): Yes (*) (Yes (*): p < 0.05) | Significance of RTA difference vs. control ([2]; PC3, 48 hours, 10 μM): Yes (**) (Yes (**): p < 0.01) | Significance of RTA difference vs. control ([2]; PC3, 48 hours, 20 μM): Yes (**) (Yes (**): p < 0.01) | Significance of RTA difference vs. control ([2]; PC3, 48 hours, 40 μM): Yes (*) (Yes (*): p < 0.05) | IC50 ([2]; PC3, 72 h): 18.7 µM | telomerase activity levels of treated groups compared to control ([2]; PC3, 72 hours): lower telomerase activity levels compared to control | Significance of RTA difference vs. control ([2]; PC3, 72 hours, 2.5 μM): No | Significance of RTA difference vs. control ([2]; PC3, 72 hours, 5 μM): Yes (*) (Yes (*): p < 0.05) | Significance of RTA difference vs. control ([2]; PC3, 72 hours, 10 μM): No | Significance of RTA difference vs. control ([2]; PC3, 72 hours, 20 μM): Yes (*) (Yes (*): p < 0.05) | Significance of RTA difference vs. control ([2]; PC3, 72 hours, 40 μM): Yes (**) (Yes (**): p < 0.01) | telomerase inhibition effect ([2]; PC3 prostate cancer cell line): exhibits a telomerase inhibition effect in a PC3 prostate cancer cell line that is more prolonged throughout all time points

O=C1OC[C@H](Cc2cccc(O)c2)[C@H]1Cc1cccc(O)c1 (racemic) [Enterolactone, reference compound]
IC50 ([1]; MCF7, 24 h): > 40 µM | IC50 ([1]; MCF7, 48 h): > 40 µM | IC50 ([1]; MCF7, 72 h): > 40 µM | telomerase activity following treatment as compared to control (untreated) groups ([1]; MCF7, Q-TRAP): no significant difference in telomerase activity | Telomerase Activity RTA (%) ([2]; PC3, 2.5 μM, 24 Hours): 61.02% | Telomerase Activity RTA (%) ([2]; PC3, 2.5 μM, 48 Hours): 3.50% | Telomerase Activity RTA (%) ([2]; PC3, 2.5 μM, 72 Hours): 13.88% | Telomerase Activity RTA (%) ([2]; PC3, 5 μM, 24 Hours): 55.90% | Telomerase Activity RTA (%) ([2]; PC3, 5 μM, 48 Hours): 3.31% | Telomerase Activity RTA (%) ([2]; PC3, 5 μM, 72 Hours): 10.65% | Telomerase Activity RTA (%) ([2]; PC3, 10 μM, 24 Hours): 62.45% | Telomerase Activity RTA (%) ([2]; PC3, 10 μM, 48 Hours): 17.89% | Telomerase Activity RTA (%) ([2]; PC3, 10 μM, 72 Hours): 12.63% | Telomerase Activity RTA (%) ([2]; PC3, 20 μM, 24 Hours): 56.77% | Telomerase Activity RTA (%) ([2]; PC3, 20 μM, 48 Hours): 25.39% | Telomerase Activity RTA (%) ([2]; PC3, 20 μM, 72 Hours): 5.15% | Telomerase Activity RTA (%) ([2]; PC3, 40 μM, 24 Hours): 43.75% | Telomerase Activity RTA (%) ([2]; PC3, 40 μM, 48 Hours): 70.42% | Telomerase Activity RTA (%) ([2]; PC3, 40 μM, 72 Hours): 6.57% | IC50 ([2]; PC3, 24 h): 21.9 µM | telomerase activity levels of treated groups compared to control ([2]; PC3, 24 hours): lower telomerase activity levels compared to control | Significance of RTA difference vs. control ([2]; PC3, 24 hours, 2.5 μM): No | Significance of RTA difference vs. control ([2]; PC3, 24 hours, 5 μM): No | Significance of RTA difference vs. control ([2]; PC3, 24 hours, 10 μM): No | Significance of RTA difference vs. control ([2]; PC3, 24 hours, 20 μM): No | Significance of RTA difference vs. control ([2]; PC3, 24 hours, 40 μM): Yes (*) (Yes (*): p < 0.05) | IC50 ([2]; PC3, 48 h): 0.05 µM | telomerase activity levels of treated groups compared to control ([2]; PC3, 48 hours): four treated groups presented a reduction in RTA | Significance of RTA difference vs. control ([2]; PC3, 48 hours, 2.5 μM): Yes (***) (Yes (***): p < 0.001) | Significance of RTA difference vs. control ([2]; PC3, 48 hours, 5 μM): Yes (***) (Yes (***): p < 0.001) | Significance of RTA difference vs. control ([2]; PC3, 48 hours, 10 μM): Yes (**) (Yes (**): p < 0.01) | Significance of RTA difference vs. control ([2]; PC3, 48 hours, 20 μM): Yes (**) (Yes (**): p < 0.01) | Significance of RTA difference vs. control ([2]; PC3, 48 hours, 40 μM): No | IC50 ([2]; PC3, 72 h): 10.7 µM | telomerase activity levels of treated groups compared to control ([2]; PC3, 72 hours): no significant differences were detected between control and treated groups | Significance of RTA difference vs. control ([2]; PC3, 72 hours, 2.5 μM): No | Significance of RTA difference vs. control ([2]; PC3, 72 hours, 5 μM): No | Significance of RTA difference vs. control ([2]; PC3, 72 hours, 10 μM): No | Significance of RTA difference vs. control ([2]; PC3, 72 hours, 20 μM): No | Significance of RTA difference vs. control ([2]; PC3, 72 hours, 40 μM): No
